According to PMC9481151, “Discovery of new symmetrical and asymmetrical nitrile-containing 1,4-dihydropyridine derivatives as dual kinases and P-glycoprotein inhibitors: synthesis, in vitro assays, and in silico studies” (Journal of Enzyme Inhibition and Medicinal Chemistry, 2022):

Key:
[1] = system: CAKI-1; assay: NCI single dose (10 µM) SRB screen; type: cell-based, human; conditions: renal cancer, 48 h
[2] = system: RXF 393; assay: NCI single dose (10 µM) SRB screen; type: cell-based, human; conditions: renal cancer, 48 h
[3] = system: NCI-H460; assay: NCI single dose (10 µM) SRB screen; type: cell-based, human; conditions: non-small cell lung cancer, 48 h
[4] = system: SNB-19; assay: NCI single dose (10 µM) SRB screen; type: cell-based, human; conditions: CNS cancer, 48 h
[5] = system: LOX IMVI; assay: NCI single dose (10 µM) SRB screen; type: cell-based, human; conditions: melanoma, 48 h
[6] = system: NCI 60 cancer cell lines; assay: NCI single dose (10 µM) SRB screen, mean over panel; type: cell-based, human; conditions: mean over 60 cell lines, 48 h
[7] = system: NCI-H226; assay: NCI single dose (10 µM) SRB screen; type: cell-based, human; conditions: non-small cell lung cancer, 48 h
[8] = system: HCT-116; assay: NCI single dose (10 µM) SRB screen; type: cell-based, human; conditions: colon cancer, 48 h
[9] = system: DU-145; assay: NCI single dose (10 µM) SRB screen; type: cell-based, human; conditions: prostate cancer, 48 h
[10] = system: TK-10; assay: NCI single dose (10 µM) SRB screen; type: cell-based, human; conditions: renal cancer, 48 h
[11] = system: UACC-257; assay: NCI single dose (10 µM) SRB screen; type: cell-based, human; conditions: melanoma, 48 h
[12] = system: HL-60(TB); assay: NCI single dose (10 µM) SRB screen; type: cell-based, human; conditions: leukaemia, 48 h
[13] = system: HOP-62; assay: NCI single dose (10 µM) SRB screen; type: cell-based, human; conditions: non-small cell lung cancer, 48 h
[14] = system: OVCAR-8; assay: NCI single dose (10 µM) SRB screen; type: cell-based, human; conditions: ovarian cancer, 48 h
[15] = system: EKVX; assay: NCI single dose (10 µM) SRB screen; type: cell-based, human; conditions: non-small cell lung cancer, 48 h
[16] = system: SK-MEL-5; assay: NCI single dose (10 µM) SRB screen; type: cell-based, human; conditions: melanoma, 48 h
[17] = system: MDA-MB-435; assay: NCI single dose (10 µM) SRB screen; type: cell-based, human; conditions: melanoma, 48 h
[18] = system: SNB-75; assay: NCI single dose (10 µM) SRB screen; type: cell-based, human; conditions: CNS cancer, 48 h
[19] = system: HOP-92; assay: NCI single dose (10 µM) SRB screen; type: cell-based, human; conditions: non-small cell lung cancer, 48 h
[20] = system: Bacillus subtilis; assay: Agar well diffusion method; conditions: relative to ciprofloxacin
[21] = system: Staphylococcus aureus; assay: Agar well diffusion method; conditions: relative to ciprofloxacin
[22] = system: T-47D; assay: NCI single dose (10 µM) SRB screen; type: cell-based, human; conditions: breast cancer, 48 h
[23] = system: NCI-H522; assay: NCI single dose (10 µM) SRB screen; type: cell-based, human; conditions: non-small cell lung cancer, 48 h
[24] = system: KM12; assay: NCI single dose (10 µM) SRB screen; type: cell-based, human; conditions: colon cancer, 48 h
[25] = system: MOLT-4; assay: NCI single dose (10 µM) SRB screen; type: cell-based, human; conditions: leukaemia, 48 h
[26] = system: HS578T; assay: NCI single dose (10 µM) SRB screen; type: cell-based, human; conditions: breast cancer, 48 h
[27] = system: NCI-H23; assay: NCI single dose (10 µM) SRB screen; type: cell-based, human; conditions: non-small cell lung cancer, 48 h
[28] = system: M14; assay: NCI single dose (10 µM) SRB screen; type: cell-based, human; conditions: melanoma, 48 h
[29] = system: Candida albicans; assay: Agar well diffusion method; conditions: relative to clotrimazole
[30] = system: SK-MEL-28; assay: NCI single dose (10 µM) SRB screen; type: cell-based, human; conditions: melanoma, 48 h
[31] = system: Escherichia coli; assay: Agar well diffusion method; conditions: relative to ciprofloxacin
[32] = system: UO-31; assay: NCI single dose (10 µM) SRB screen; type: cell-based, human; conditions: renal cancer, 48 h
[33] = system: CCRF-CEM; assay: NCI single dose (10 µM) SRB screen; type: cell-based, human; conditions: leukaemia, 48 h
[34] = system: A498; assay: NCI single dose (10 µM) SRB screen; type: cell-based, human; conditions: renal cancer, 48 h
[35] = system: COLO 205; assay: NCI single dose (10 µM) SRB screen; type: cell-based, human; conditions: colon cancer, 48 h
[36] = system: HCC-2998; assay: NCI single dose (10 µM) SRB screen; type: cell-based, human; conditions: colon cancer, 48 h
[37] = system: SR; assay: NCI single dose (10 µM) SRB screen; type: cell-based, human; conditions: leukaemia, 48 h
[38] = system: Pseudomonas aeruginosa; assay: Agar well diffusion method; conditions: relative to ciprofloxacin
[39] = system: MCF7; assay: NCI single dose (10 µM) SRB screen; type: cell-based, human; conditions: breast cancer, 48 h
[40] = system: HCT-15; assay: NCI single dose (10 µM) SRB screen; type: cell-based, human; conditions: colon cancer, 48 h
[41] = system: SW-620; assay: NCI single dose (10 µM) SRB screen; type: cell-based, human; conditions: colon cancer, 48 h
[42] = system: K-562; assay: NCI single dose (10 µM) SRB screen; type: cell-based, human; conditions: leukaemia, 48 h
[43] = system: SK-OV-3; assay: NCI single dose (10 µM) SRB screen; type: cell-based, human; conditions: ovarian cancer, 48 h
[44] = system: SN12C; assay: NCI single dose (10 µM) SRB screen; type: cell-based, human; conditions: renal cancer, 48 h
[45] = system: OVCAR-4; assay: NCI single dose (10 µM) SRB screen; type: cell-based, human; conditions: ovarian cancer, 48 h
[46] = system: U251; assay: NCI single dose (10 µM) SRB screen; type: cell-based, human; conditions: CNS cancer, 48 h
[47] = system: BT-549; assay: NCI single dose (10 µM) SRB screen; type: cell-based, human; conditions: breast cancer, 48 h
[48] = system: MALME-3M; assay: NCI single dose (10 µM) SRB screen; type: cell-based, human; conditions: melanoma, 48 h
[49] = system: NCI/ADR-RES; assay: NCI single dose (10 µM) SRB screen; type: cell-based, human; conditions: ovarian cancer, 48 h
[50] = system: OVCAR-5; assay: NCI single dose (10 µM) SRB screen; type: cell-based, human; conditions: ovarian cancer, 48 h
[51] = system: PC-3; assay: NCI single dose (10 µM) SRB screen; type: cell-based, human; conditions: prostate cancer, 48 h
[52] = system: MDA-MB-231; assay: NCI single dose (10 µM) SRB screen; type: cell-based, human; conditions: breast cancer, 48 h
[53] = system: IGROV1; assay: NCI single dose (10 µM) SRB screen; type: cell-based, human; conditions: ovarian cancer, 48 h
[54] = system: 786-0; assay: NCI single dose (10 µM) SRB screen; type: cell-based, human; conditions: renal cancer, 48 h
[55] = system: RPMI-8226; assay: NCI single dose (10 µM) SRB screen; type: cell-based, human; conditions: leukaemia, 48 h
[56] = system: A549/ATCC; assay: NCI single dose (10 µM) SRB screen; type: cell-based, human; conditions: non-small cell lung cancer, 48 h
[57] = system: NCI-H322M; assay: NCI single dose (10 µM) SRB screen; type: cell-based; conditions: non-small cell lung cancer, 48 h
[58] = system: MDA-MB-468; assay: NCI single dose (10 µM) SRB screen; type: cell-based, human; conditions: breast cancer, 48 h
[59] = system: SK-MEL-2; assay: NCI single dose (10 µM) SRB screen; type: cell-based, human; conditions: melanoma, 48 h
[60] = system: SF-268; assay: NCI single dose (10 µM) SRB screen; type: cell-based, human; conditions: CNS cancer, 48 h
[61] = system: SF-539; assay: NCI single dose (10 µM) SRB screen; type: cell-based, human; conditions: CNS cancer, 48 h
[62] = system: Aspergillus flavus; assay: Agar well diffusion method
[63] = system: ACHN; assay: NCI single dose (10 µM) SRB screen; type: cell-based, human; conditions: renal cancer, 48 h
[64] = system: HT29; assay: NCI single dose (10 µM) SRB screen; type: cell-based, human; conditions: colon cancer, 48 h
[65] = system: SF-295; assay: NCI single dose (10 µM) SRB screen; type: cell-based, human; conditions: CNS cancer, 48 h
[66] = system: OVCAR-3; assay: NCI single dose (10 µM) SRB screen; type: cell-based, human; conditions: ovarian cancer, 48 h
[67] = system: UACC-62; assay: NCI single dose (10 µM) SRB screen; type: cell-based, human; conditions: melanoma, 48 h

COC(=O)C1=C(C)NC(C)=C(C(=O)OC(C)(C)C)C1c1cccc(C#N)c1 (racemic) [Compound 2c, (±)-3-Tert-butyl 5-Methyl 4-(3-cyanophenyl)-2,6-dimethyl-1,4-dihydropyridine-3,5-dicarboxylate]
GI% CAKI-1 [1]: 15%
GI% RXF 393 [2]: – (Only GI% ≥ 10 are shown)
GI% NCI-H460 [3]: – (Only GI% ≥ 10 are shown)
GI% SNB-19 [4]: – (Only GI% ≥ 10 are shown)
GI% LOX IMVI [5]: – (Only GI% ≥ 10 are shown)
Mean GI% [6]: 0%
GI% NCI-H226 [7]: – (Only GI% ≥ 10 are shown)
GI% HCT-116 [8]: – (Only GI% ≥ 10 are shown)
GI% DU-145 [9]: – (Only GI% ≥ 10 are shown)
GI% TK-10 [10]: – (Only GI% ≥ 10 are shown)
GI% UACC-257 [11]: – (Only GI% ≥ 10 are shown)
GI% HL-60(TB) [12]: – (Only GI% ≥ 10 are shown)
GI% HOP-62 [13]: – (Only GI% ≥ 10 are shown)
GI% OVCAR-8 [14]: – (Only GI% ≥ 10 are shown)
GI% EKVX [15]: – (Only GI% ≥ 10 are shown)
GI% SK-MEL-5 [16]: – (Only GI% ≥ 10 are shown)
GI% MDA-MB-435 [17]: – (Only GI% ≥ 10 are shown)
GI% SNB-75 [18]: 27%
GI% HOP-92 [19]: 10%
% activity index, B. subtilis [20]: – (Values below 25 are of limited value and not shown as they refer either to inactive or non-diffusing compounds)
% activity index, S. aureus [21]: – (Values below 25 are of limited value and not shown as they refer either to inactive or non-diffusing compounds)
GI% T-47D [22]: 12%
GI% NCI-H522 [23]: – (Only GI% ≥ 10 are shown)
GI% KM12 [24]: – (Only GI% ≥ 10 are shown)
GI% MOLT-4 [25]: – (Only GI% ≥ 10 are shown)
GI% HS578T [26]: – (Only GI% ≥ 10 are shown)
GI% NCI-H23 [27]: – (Only GI% ≥ 10 are shown)
GI% M14 [28]: – (Only GI% ≥ 10 are shown)
% activity index, C. albicans [29]: – (Values below 25 are of limited value and not shown as they refer either to inactive or non-diffusing compounds)
GI% SK-MEL-28 [30]: – (Only GI% ≥ 10 are shown)
% activity index, E. coli [31]: – (Values below 25 are of limited value and not shown as they refer either to inactive or non-diffusing compounds)
GI% UO-31 [32]: – (Only GI% ≥ 10 are shown)
GI% CCRF-CEM [33]: – (Only GI% ≥ 10 are shown)
GI% A498 [34]: – (Only GI% ≥ 10 are shown)
GI% COLO 205 [35]: – (Only GI% ≥ 10 are shown)
GI% HCC-2998 [36]: – (Only GI% ≥ 10 are shown)
GI% SR [37]: 15%
% activity index, P. aeruginosa [38]: – (Values below 25 are of limited value and not shown as they refer either to inactive or non-diffusing compounds)
GI% MCF7 [39]: 13%
GI% HCT-15 [40]: – (Only GI% ≥ 10 are shown)
GI% SW-620 [41]: – (Only GI% ≥ 10 are shown)
GI% K-562 [42]: – (Only GI% ≥ 10 are shown)
GI% SK-OV-3 [43]: – (Only GI% ≥ 10 are shown)
GI% SN12C [44]: – (Only GI% ≥ 10 are shown)
GI% OVCAR-4 [45]: – (Only GI% ≥ 10 are shown)
GI% U251 [46]: – (Only GI% ≥ 10 are shown)
GI% BT-549 [47]: – (Only GI% ≥ 10 are shown)
GI% MALME-3M [48]: – (Only GI% ≥ 10 are shown)
GI% NCI/ADR-RES [49]: – (Only GI% ≥ 10 are shown)
GI% OVCAR-5 [50]: – (Only GI% ≥ 10 are shown)
GI% PC-3 [51]: 18%
GI% MDA-MB-231 [52]: – (Only GI% ≥ 10 are shown)
GI% IGROV1 [53]: – (Only GI% ≥ 10 are shown)
GI% 786-0 [54]: – (Only GI% ≥ 10 are shown)
GI% RPMI-8226 [55]: 12%
GI% A549/ATCC [56]: – (Only GI% ≥ 10 are shown)
GI% NCI-H322M [57]: – (Only GI% ≥ 10 are shown)
GI% MDA-MB-468 [58]: – (Only GI% ≥ 10 are shown)
GI% SK-MEL-2 [59]: – (Only GI% ≥ 10 are shown)
GI% SF-268 [60]: – (Only GI% ≥ 10 are shown)
GI% SF-539 [61]: – (Only GI% ≥ 10 are shown)
zone of inhibition at 1000 µg/mL ([62]; Aspergillus flavus, 24 h, read-out: Diameter of inhibition zone, A. flavus): 7 mm
% activity index, A. flavus ([62]; relative to clotrimazole): 28%
GI% ACHN [63]: – (Only GI% ≥ 10 are shown)
melting point: 157 to 159 °C
GI% HT29 [64]: – (Only GI% ≥ 10 are shown)
GI% SF-295 [65]: – (Only GI% ≥ 10 are shown)
GI% OVCAR-3 [66]: – (Only GI% ≥ 10 are shown)
GI% UACC-62 [67]: – (Only GI% ≥ 10 are shown)
